{"source": "patent US20260034079A1", "about": "“PHARMACEUTICAL COMPOSITION CONTAINING HYDROXYUREA FOR USE IN THE TREATMENT OF SEVERE CHRONIC ANEMIA” (THERAVIA, priority 2019, published 2026)", "system": "sickle cell patients with severe chronic anaemia", "test": "Clinical trial: hematological parameters during treatment with Siklos in HU-naive sickle cell patients with severe chronic anaemia", "format": "in vivo, human", "protocol": "This study was conducted with a pharmaceutical composition identical to that of Siklos.\nThe dose of hydroxycarbamide is comprised from 5 to 30 mg/kg/day.\nThe results of the evaluation of the hematological parameters of the patients are recorded in the table below.", "key": {"[1]": {"conditions": "12 months after the start of the treatment, p<0.001"}}, "data": [{"smiles": "NC(=O)NO", "note": "[hydroxycarbamide, hydroxyurea]", "values": [{"measurement": "Haemoglobin, value after initiation of the treatment", "setting": "12 months after initiation of Siklos (between 10 and 14 months), 41 patients, base value 7.16 ± 1.06, 5 to 30 mg/kg/day", "result": "7.89 ± 1.11", "unit": "g/dL"}, {"measurement": "Variation of the haemoglobin, change with respect to the base value", "setting": "12 months after initiation of Siklos (between 10 and 14 months), 41 patients, p 0.001", "result": "0.73 ± 1.30", "unit": "g/dL"}, {"measurement": "Mean blood volume, change", "setting": "[1]", "result": "+10.82±11.42"}, {"measurement": "Number of reticulocytes, change", "setting": "[1]", "result": "−91.5±115.6"}, {"measurement": "Absolute number of neutrophil", "setting": "after the start of the treatment, indicating adequate compliance", "result": "decreased"}, {"measurement": "Evolution of the fetal haemoglobin, change with respect to the base value", "setting": "at least 6 months after initiation of Siklos (between 5 and 14 months), 23 patients, p <0.001", "result": "6.37±6.38", "unit": "%"}, {"measurement": "Variation of the haemoglobin, change with respect to the base value", "setting": "at least 6 months after initiation of Siklos (between 5 and 14 months), 55 patients, p <0.001", "result": "0.65 ± 1.24", "unit": "g/dL"}]}]}
